In patent US8129380B2, “Phthalazinone derivatives” (AstraZeneca AB, priority 2008, dated 2012):

Tested on: HeLa cells
Test: Potentiation Factor (PF50): MMS growth inhibition, SRB assay
Type: cell-based
Conditions: MMS 0-10 μg/ml, ratio IC50 control / IC50 + inhibitor; for PF50 (30 nM): PARP inhibitor at 30 nM; for PF50 (200 nM): PARP inhibitor at 200 nM
Experimental: The Potentiation Factor (PF50) for compounds is calculated as a ratio of the IC50 of control cell growth divided by the IC50 of cell growth+PARP inhibitor. Growth inhibition curves for both control and compound treated cells are in the presence of the alkylating agent methyl methanesulfonate (MMS). The test compounds were used at a fixed concentration of 0.2 micromolar. The concentrations of MMS were over a range from 0 to 10 μg/ml.
2,000 HeLa cells were seeded into each well of a flat-bottomed 96-well microtiter plate in a volume of 100 μl and incubated for 6 hours at 37° C. Cells were either replaced with media alone or with media containing PARP inhibitor at a final concentration of 30 nM or 200 nM. […] Cells treated with PARP inhibitor alone were used to assess the growth inhibition by the PARP inhibitor.
Cells were left for a further 16 hours before replacing the media and allowing the cells to grow for a further 72 hours at 37° C. The media was then removed and the cells fixed with 100 μl of ice cold 10% (w/v) trichloroacetic acid. The plates were incubated at 4° C. for 20 minutes and then washed four times with water. Each well of cells was then stained with 100 μl of 0.4% (w/v) SRB in 1% acetic acid for 20 minutes before washing four times with 1% acetic acid. Plates were then dried for 2 hours at room temperature. The dye from the stained cells was solubilized by the addition of 100 μl of 10 mM Tris Base into each well.

Row | Structure (SMILES) | PF50 (30 nM) | PF50 (200 nM)
1 | O=C(c1cccc(Cc2n[nH]c(=O)c3ccccc23)c1)N1CCC(OC2CCCC2)CC1 [Compound 37, 4-(3-(4-(cyclopentyloxy)piperidine-1-carbonyl)benzyl)phthalazin-1(2H)-one] | 1.7 | 10.6
2 | Cc1cccc(OC2CCN(C(=O)c3cc(Cc4n[nH]c(=O)c5ccccc45)ccc3F)CC2)n1 [Compound 39, 4-(4-fluoro-3-(4-(6-methylpyridin-2-yloxy)piperidine-1-carbonyl)benzyl)phthalazin-1(2H)-one] | 1.4 | 
3 | O=C(c1cc(Cc2n[nH]c(=O)c3ccccc23)ccn1)N1CCC(OC2CCCC2)CC1 [Compound 40, 4-((2-(4-(cyclopentyloxy)piperidine-1-carbonyl)pyridin-4-yl)methyl)phthalazin-1(2H)-one] | 2.2 | 19.8
4 | COC1CCN(C(=O)c2cc(Cc3n[nH]c(=O)c4cccc(N)c34)ccc2F)CC1 [Compound 46, 5-amino-4-(4-fluoro-3-(4-methoxypiperidine-1-carbonyl)benzyl)phthalazin-1(2H)-one] | 20.1 | 3.24
5 | CCOC1CCN(C(=O)c2cccc(Cc3n[nH]c(=O)c4ccccc34)c2)CC1 [Compound 47a, 4-(3-(4-ethoxypiperidine-1-carbonyl)benzyl)phthalazin-1(2H)-one] | 1.8 | 
6 | CCOC1CCN(C(=O)c2cc(Cc3n[nH]c(=O)c4c(C)[nH]c(C)c34)ccc2F)CC1 [Compound 54, 4-(3-(4-ethoxypiperidine-1-carbonyl)-4-fluorobenzyl)-5,7-dimethyl-2,6-dihydro-1H-pyrrolo[3,4-d]pyridazin-1-one] | 1.3 | 
7 | COC1CCN(C(=O)c2cc(Cc3n[nH]c(=O)c4c(C)[nH]c(C)c34)ccc2F)CC1 [Compound 58, 4-(4-fluoro-3-(4-methoxypiperidine-1-carbonyl)benzyl)-5,7-dimethyl-2,6-dihydro-1H-pyrrolo[3,4-d]pyridazin-1-one] | 1.0 | 
8 | COC1CCN(C(=O)c2cc(Cc3n[nH]c(=O)c4c(C)n(C)c(C)c34)ccc2F)CC1 [Compound 60, 4-(4-fluoro-3-(4-methoxypiperidine-1-carbonyl)benzyl)-5,6,7-trimethyl-2,6-dihydro-1H-pyrrolo[3,4-d]pyridazin-1-one] | 1.0 | 
9 | COC1CCN(C(=O)c2cc(Cc3n[nH]c(=O)c4c[nH]c(C)c34)ccc2F)CC1 [Compound 63, 4-(4-fluoro-3-(4-methoxypiperidine-1-carbonyl)benzyl)-5-methyl-2,6-dihydro-1H-pyrrolo[3,4-d]pyridazin-1-one] | 1.0 | 
10 | COC1CCN(C(=O)c2cc(Cc3n[nH]c(=O)c4cc(Cl)ccc34)ccc2F)CC1 [Compound 69, 7-chloro-4-(4-fluoro-3-(4-methoxypiperidine-1-carbonyl)benzyl)phthalazin-1(2H)-one] | 1.7 | 
11 | CC(C)(C)OC1CCN(C(=O)c2cc(Cc3n[nH]c(=O)c4ccccc34)ccc2F)CC1 [Compound 70, 4-(3-(4-tert-butoxypiperidine-1-carbonyl)-4-fluorobenzyl)phthalazin-1(2H)-one] | 32.1 | 19.5
12 | CC(C)(C)OC1CCN(C(=O)c2cccc(Cc3n[nH]c(=O)c4ccccc34)c2)CC1 [Compound 71, 4-[[3-[4-[(2-methylpropan-2-yl)oxy]piperidine-1-carbonyl]phenyl]methyl]-2H-phthalazin-1-one] | 4.0 | 8.9
13 | CC(C)(C)OC1CCN(C(=O)c2cc(Cc3n[nH]c(=O)c4ccccc34)ccn2)CC1 [Compound 73, 4-((2-(4-tert-butoxypiperidine-1-carbonyl)pyridin-4-yl)methyl)phthalazin-1(2H)-one] | 6.2 | 27.8
14 | CC1(O)CCN(C(=O)c2cc(Cc3n[nH]c(=O)c4ccccc34)ccc2F)CC1 [Compound 74, 4-(4-fluoro-3-(4-hydroxy-4-methylpiperidine-1-carbonyl)benzyl)phthalazin-1(2H)-one] | 1.5 | 
15 | O=C(COC1CCN(C(=O)c2cc(Cc3n[nH]c(=O)c4ccccc34)ccc2F)CC1)N1CCOCC1 [Compound 77, 4-(4-fluoro-3-(4-(2-morpholino-2-oxoethoxy)piperidine-1-carbonyl)benzyl)phthalazin-1(2H)-one] | 3.1 | 
16 | O=C(c1cc(Cc2n[nH]c(=O)c3ccccc23)ccc1F)N1CCC(OCCN2CCOCC2)CC1 [Compound 80, 4-(4-fluoro-3-(4-(2-morpholinoethoxy)piperidine-1-carbonyl)benzyl)phthalazin-1(2H)-one] | 1.5 | 
17 | CN(C)C(=O)COC1CCN(C(=O)c2cc(Cc3n[nH]c(=O)c4ccccc34)ccc2F)CC1 [Compound 83, 2-(1-(2-fluoro-5-((4-oxo-3,4-dihydrophthalazin-1-yl)methyl)benzoyl)piperidin-4-yloxy)-N,N-dimethylacetamide] | 1.7 | 
18 | O=C(COC1CCN(C(=O)c2cc(Cc3n[nH]c(=O)c4ccccc34)ccc2F)CC1)N1CC(F)(F)C1 [Compound 89, 4-(3-(4-(2-(3,3-difluoroazetidin-1-yl)-2-oxoethoxy)piperidine-1-carbonyl)-4-fluorobenzyl)phthalazin-1(2H)-one] | 1.9 | 
19 | O=C(O)COC1CCN(C(=O)c2cc(Cc3n[nH]c(=O)c4ccccc34)ccc2F)CC1 [Compound 90, 2-(1-(2-fluoro-5-((4-oxo-3,4-dihydrophthalazin-1-yl)methyl)benzoyl)piperidin-4-yloxy)acetic acid] | 1.1 | 
20 | COC[C@H](C)OC1CCN(C(=O)c2cc(Cc3n[nH]c(=O)c4ccccc34)ccc2F)CC1 [Compound 93, (S)-4-(4-fluoro-3-(4-(1-methoxypropan-2-yloxy)piperidine-1-carbonyl)benzyl)phthalazin-1(2H)-one] | 2.8 | 
21 | COC1CCN(C(=O)c2cc(Cc3n[nH]c(=O)c4ccc(N)cc34)ccc2F)CC1 [Compound 99, 6-amino-4-(4-fluoro-3-(4-methoxypiperidine-1-carbonyl)benzyl)phthalazin-1(2H)-one] | 1.0 | 
22 | COC1CCN(C(=O)c2cc(Cc3n[nH]c(=O)c4cccc(Cl)c34)ccc2F)CC1 [Compound 104a, 5-chloro-4-(4-fluoro-3-(4-methoxypiperidine-1-carbonyl)benzyl)phthalazin-1(2H)-one] | 1.3 | 
23 | CCOC1CCN(C(=O)c2cc(Cc3n[nH]c(=O)c4cccc(Cl)c34)ccc2F)CC1 [Compound 104b, 5-chloro-4-(3-(4-ethoxypiperidine-1-carbonyl)-4-fluorobenzyl)phthalazin-1(2H)-one] | 2.2 | 
24 | O=C(COC1CCN(C(=O)c2cc(Cc3n[nH]c(=O)c4ccccc34)ccc2F)CC1)N1CCCC1 [Compound 107, 4-(4-fluoro-3-(4-(2-oxo-2-(pyrrolidin-1-yl)ethoxy)piperidine-1-carbonyl)benzyl)phthalazin-1(2H)-one] | 1.7 | 
25 | O=C(COC1CCN(C(=O)c2cc(Cc3n[nH]c(=O)c4ccccc34)ccc2F)CC1)N1CCCCC1 [Compound 113, 4-(4-fluoro-3-(4-(2-oxo-2-(piperidin-1-yl)ethoxy)piperidine-1-carbonyl)benzyl)phthalazin-1 (2H)-one] | 5.8 | 23.1
26 | COC1CCN(C(=O)c2cccc(Cc3n[nH]c(=O)c4cccc(Cl)c34)c2)CC1 [Compound 119a, 5-chloro-4-(3-(4-methoxypiperidine-1-carbonyl)benzyl)phthalazin-1(2H)-one] | 1.0 | 
27 | CCOC1CCN(C(=O)c2cccc(Cc3n[nH]c(=O)c4cccc(Cl)c34)c2)CC1 [Compound 119b, 5-chloro-4-(3-(4-ethoxypiperidine-1-carbonyl)benzyl)phthalazin-1(2H)-one] | 1.2 | 
28 | COc1cccc2c(=O)[nH]nc(Cc3ccc(F)c(C(=O)N4CCC(OC)CC4)c3)c12 [Compound 126a, 4-(4-fluoro-3-(4-methoxypiperidine-1-carbonyl)benzyl)-5-methoxyphthalazin-1(2H)-one] | 11.0 | 
29 | CCOC1CCN(C(=O)c2cc(Cc3n[nH]c(=O)c4cccc(OC)c34)ccc2F)CC1 [Compound 126b, 4-(3-(4-ethoxypiperidine-1-carbonyl)-4-fluorobenzyl)-5-methoxyphthalazin-1(2H)-one] | 7.4 | 
30 | CCOC1CCN(C(=O)c2cc(F)cc(Cc3n[nH]c(=O)c4cccc(Cl)c34)c2)CC1 [Compound 129a, 5-chloro-4-(3-(4-ethoxypiperidine-1-carbonyl)-5-fluorobenzyl)phthalazin-1(2H)-one] | 1.0 | 
